# Like-named read-outs stand apart in the source and are kept apart here.
# Experiments:
# V79 cell line = test: Intracellular ROS level (DCFH-DA), V79 cells; assay type: cell-based, Chinese hamster; conditions: Cricetulus griseus, 4 h, V79, compound 100 μM
# Method: (§1) Two cell lines were chosen for investigations: V79 (Chinese hamster lung fibroblasts) and LoVo. V79 normal cells are widely used as the cell line tested in the studies of the oxidative stress. These cells are a living system model to explain the mechanism of ROS effects caused by varied compounds [73].
# (§2) First, the tested compounds (in concentration of 100 μM) were added to the cell cultures and cells were incubated for 4 h. Then cells were washed and incubated with DCFH-DA (non-fluorescent probe) in dark at 37 °C for 2 h at CO2 [79]. Non-fluorescent, non-polar DCFH-DA (2′7′-dichlorodihydrofluorescein diacetate) at concentration of 25 μM was used as a marker of oxidative stress to determine the intracellular ROS levels. […] In this time, DCFH-DA which penetrated into the cells, was hydrolyzed by esterases to polar, non-fluorescent DCFH (2′7′-dichlorodihydrofluorescein) and then oxidized in the presence of ROS (reactive oxygen species) to fluorescent DCF (2′7′-dichlorofluorescein). DCF was measured using Varioscan LUX microplate reader (Thermo Fisher Scientific, Waltham, MA, USA) at λex = 485 nm and λem = 535 nm. Then results were presented as E/E0 where E is test sample value and E0—control value.
# […] E is the culture with the tested compound and E0 is the negative control without the compound. The routine statistical methods: two-way analysis of variance ANOVA as well as Tukey’s post-hoc test were used. It allowed us to determine the statistical significance of results, where p < 0.05 was set as significant. The statistical indicators were estimated using Statistica 13.3 software.
# LoVo cell line = test: Intracellular ROS level (DCFH-DA), LoVo cells; assay type: cell-based; conditions: Homo sapiens, 4 h, compound 100 μM
# Method: as §1
# as §2, with “nm.” for “nm. Then results were presented as E/E0 where E is test sample value and E0—control value.”
# E is the culture with the tested compound and E0 is the negative control without the compound. The routine statistical methods: two-way analysis of variance ANOVA as well as Tukey’s post-hoc test were used. It allowed us to determine the statistical significance of results, where p < 0.05 was set as significant. The statistical indicators were estimated using Statistica 13.3 software.
# [1] = tested on: VERO (kidney epithelial cells); test: MTT assay, VERO; assay type: cell-based; conditions: 48 h incubation
# Excerpt: (§3) The MTT (3-[4,5-dimethylthiazol-2-yl]-2,5-diphenyl tetrazolium bromide) assay was used to determine the cytotoxicity of tested compounds towards different cell lines: normal human dermal fibroblasts (NHDF), kidney epithelial cells (VERO), fibroblasts from Chinese hamster lung (V79) and four human cancer cells: A549 (pulmonary basal cell alveolar adenocarcinoma), MCF-7 (breast adenocarcinoma), LoVo (colon adenocarcinoma), and its drug resistant subline LoVo/Dx. The cell lines used in this study express COX-1 and COX-2. The LoVo line expressed COX-1, the LoVo/Dx subline express both COX-1 and COX-2 [61].
# (§4) Each cell line was grown in the culture media recommended by supplier. Before the test they were detached with trypsin/EDTA solution, then to neutralize the effect of Trypsin/EDTA solution, FBS containing medium was used. After centrifugation the cells were stained with 0.4% solution of trypan blue, counted and inspected for viability using microscope. In the end, cells were inserted into 96-well culture plates and incubated in CO2 incubator (37 °C, 24 h). The number of cells was 2 × 10^3 cells per well. The tested compounds with different concentrations (5, 10, 20, 50, 100 µM) were dissolved in DMSO and then added to the cells (the final DMSO concentration was 0.1%). The cultures were incubated for another 48 h. After that time the cells were collected to be used in tests.
# (§5) MTT assay was used to find out how tested compounds influence the metabolic activity of investigated cell lines. The cells were incubated with tested compounds. After removing of supernatant, 1 mg/mL of MTT solution in MEM was added to the plate (to each well) and then the plates were incubated at 37 °C for 2 h. The medium was removed again, and formazan crystals were dissolved in isopropanol. A Varioscan LUX microplate reader (Thermo Fisher Scientific, Waltham, MA, USA) was used to measure absorbance at 570 nm.
# [2] = tested on: LoVo/Dx (drug resistant subline of LoVo); test: MTT assay, LoVo/Dx; assay type: cell-based; conditions: Homo sapiens, 48 h incubation, read-out: IC50 [µM] ± SD LoVo/Dx
# Excerpt: as §3
# as §4, with “In the end, cells were inserted into 96-well culture plates and incubated in CO2 incubator (37 °C, 24 h).” left out
# MTT assay was used to find out how tested compounds influence the metabolic activity of investigated cell lines. The cells were incubated with tested compounds. […] The medium was removed again, and formazan crystals were dissolved in isopropanol.
# [3] = tested on: V79 (fibroblasts from Chinese hamster lung); test: MTT assay, V79; assay type: cell-based; conditions: Cricetulus griseus, Fibroblast, 48 h incubation, read-out: IC50 [µM] ± SD V79
# Excerpt: as §3, §4, §5
# [4] = tested on: NHDF (normal human dermal fibroblasts); test: MTT assay, NHDF; assay type: cell-based; conditions: 48 h incubation, read-out: IC50 [µM] ± SD NHDF
# Excerpt: as §3, §4, §5
# [5] = tested on: LoVo (colon adenocarcinoma); test: MTT assay, LoVo; assay type: cell-based; conditions: Homo sapiens, 48 h incubation, read-out: IC50 [µM] ± SD LoVo
# Excerpt: as §3, §4, §5
# [6] = tested on: A549 (pulmonary basal cell alveolar adenocarcinoma); test: MTT assay, A549; assay type: cell-based; conditions: Homo sapiens, 48 h incubation, read-out: IC50 [µM] ± SD A549
# Excerpt: as §3, §4, §5
# [7] = with H2O2 (100 μM, 30 min), n = 5, read-out: ROS scavenging activity, Mean E/E0 ± SD, with H2O2
# [8] = without H2O2, n = 5, read-out: ROS scavenging activity, Mean E/E0 ± SD, without H2O2
Compound,activity at 100 µM (V79 cell line; [7]),activity at 100 µM (V79 cell line; [8]),activity at 100 µM (LoVo cell line; [7]),activity at 100 µM (LoVo cell line; [8]),IC50 [µM] ± SD VERO [1],IC50 [2],IC50 [3],IC50 [4],IC50 [5],IC50 [6]
"O=C1O[C@H]([C@@H](O)CO)C(O)=C1O [Ascorbic acid, ascorbic acid, reference compound]",22 ± 12%,83 ± 13%,32 ± 9%,89 ± 11%,,,,,,
"Cc1cnc(NC(=O)C2=C(O)c3ccccc3S(=O)(=O)N2C)s1 [Meloxicam, meloxicam, reference compound]",85 ± 18%,115 ± 19%,89 ± 16%,,no toxicity,142 ± 9.46 µM,201 ± 17.8 µM,196 ± 35.2 µM,,
"CN1C(C(=O)Nc2ccccn2)=C(O)c2ccccc2S1(=O)=O [Piroxicam, piroxicam, reference compound]",67 ± 17%,98 ± 17%,81 ± 19%,72 ± 19%,no toxicity,126 ± 11.2 µM,213 ± 23.2 µM,162 ± 22.9 µM,122 ± 10.2 µM,110 ± 28.2 µM
"Cc1c(C)c2c(c(C)c1O)CCC(C)(C(=O)O)O2 (stereo not shown) [Trolox, trolox, reference compound]",15 ± 8%,71 ± 5%,29 ± 15%,85 ± 13%,,,,,,

# — article PMC8745710, “Biological Evaluation and Molecular Docking Studies of Novel 1,3,4-Oxadiazole Derivatives of 4,6-Dimethyl-2-sulfanylpyridine-3-carboxamide” (International Journal of Molecular Sciences, 2022)
